Laboratory results: patent US6420572B1, “Synthetic methods for preparation of protected proanthocyanidin(s)” (Mars, Incorporated, priority 1997, dated 2002)
“Also recorded” adds a separate entry of the source. Read-outs that look alike come from different tables or passages of the source.

System: human breast cancer cell lines (MDA MB 231, MDA MB 435, MCF-7)
Experiment: Cytotoxic activity: cell proliferation (crystal violet staining) of human breast cancer cell lines
Procedure: All human tumor cell lines were obtained from the American Type Culture Collection. Cells were grown as monolayers in IMEM containing 10% fetal bovine serum without antibiotics. The cells were maintained in a humidified, 5% CO2 atmosphere at 37° C.
After trypsinization, the cells were counted and adjusted to a concentration of 1,000-2,000 cells per 100 mL. Cell proliferation was determined by plating the cells (1,000-2,000 cells/well) in a 96 well microtiter plate. After addition of 100 μL cells per well, the cells were allowed to attach for 24 hours. […] The polyphenols were dissolved in media at a 2 fold concentration and 100 μL of each solution was added in triplicate wells. On consecutive days, the plates were stained with 50 μL crystal violet (2.5 g crystal violet dissolved in 125 mL methanol, 375 mL water), for 15 min. The stain was removed and the plate was gently immersed into cold water to remove excess stain. The washings were repeated two more times, and the plates allowed to dry. The remaining stain was solubilized by adding 100 μL of 0.1 M sodium citrate/50% ethanol to each well. After solubilization, the number of cells were quantitated on an ELISA plate reader at 540 nm (reference filter at 410 nm).
Error bars represent +/− standard deviation of three replicate measurements.

[1] = breast cancer cell lines investigated, four days, various μg/mL concentrations, FIG. 1(a)-(d)

| SMILES | cytotoxicity (cancer cell line growth at the end of four days as percent growth of the control) [1] | antineoplastic activity against several human breast cancer cell lines (comparison in words) (in vitro assessment of Example 25) | cytotoxicity (cancer cell line growth at the end of four days as percent growth of the control) |
| --- | --- | --- | --- |
| Oc1cc(O)c2c(c1)O[C@H](c1ccc(O)c(O)c1)[C@H](O)C2 [monomer (epicatechin), epicatechin, reference compound] | no cytotoxicity |  |  |
| O=C(OC1Cc2c(O)cc(O)c(C3c4c(O)cc(O)c(C5c6c(O)cc(O)cc6OC(c6ccc(O)c(O)c6)C5OC(=O)c5cc(O)c(O)c(O)c5)c4OC(c4ccc(O)c(O)c4)C3OC(=O)c3cc(O)c(O)c(O)c3)c2OC1c1ccc(O)c(O)c1)c1cc(O)c(O)c(O)c1 (stereo not drawn) [synthetic epicatechin trimer trisgallate, [EC-3-O-galloyl-(4β→8)]2-EC-3-O-gallate] | cytotoxic effect equivalent to the pentamer and/or epigallocatechin gallate | activity equivalent to the pentamer; also recorded: greater antineoplastic activity when compared to the underivatized dimer and trimer |  |
| Oc1cc(O)c2c(c1)O[C@H](c1ccc(O)c(O)c1)[C@H](O)[C@H]2c1c(O)cc(O)c2c1O[C@H](c1ccc(O)c(O)c1)[C@H](O)C2 [synthetic epicatechin dimer, EC-(4β→8)-EC] |  |  | no cytotoxicity |
